Results from patent US20230093147A1, “METHODS AND COMPOSITIONS RELATING TO IMPROVED COMBINATION THERAPIES” (PRESIDENT AND FELLOWS OF HARVARD COLLEGE, priority 2020, published 2023).
“And” between values parts separate entries of the source, which are not always exact repeats. Identical values can stand only once.

How the values were obtained:
4T1 cells = experiment: Calreticulin exposure on 4T1 cells; format: cell-based, murine; details: 10 μM DOX, compared to untreated controls
Method: Cells for antibody staining and flow cytometry studies were plated in 6-well plates in 3 ml of media and allowed to adhere overnight. […] Treatment was administered approximately 24 h after plating. Cells were harvested using 0.5 ml of trypsin and resuspended to establish 10^6 cells in 100 μl of cell staining buffer. Cells were washed once and incubated at room temperature with 1% CD16/32 in 100 μl of cell staining buffer. After another wash, cells were incubated for 30 min on ice with fluorescently labeled antibodies (Table 12) to distinguish tumor antigens or characteristic markers of immune cell subtypes. Antibody-stained cells were then washed twice before analysis with a BD LSRII flow cytometer.

[1] = system: 4T1 murine breast cancer cells; experiment: In vitro cellular inhibition (MTT) and synergy quantification; format: cell-based
Method: 4T1 cells were seeded in 96 well plates at a density of 500 cells/well. Cells were given 24 hours to adhere to the well plate. Afterwards, a series of ten drug or drug combination dilutions prepared in fresh media were administered to the cells, with a starting concentration of 100 μM. The drugs were incubated with the cells for 72 hours before the media was removed and replaced with 0.5 mg/ml of MTT reagent in media fresh media. The MTT reagent was left incubating with the cells for 4 hours, during which living cells metabolized the reagent to form solid formazan crystals. Afterwards, the MTT reagent in media was removed, and the crystallized formazan was dissolved in DMSO. The plate is shaken at 300 rpm for 15 minutes to fully dissolve the formazan crystals, and absorbance was measured at 590 nm via Spectramax i3 plate reader. The fraction of cells inhibited at a certain drug concentration was calculated by: […]
where A is the average absorbance of the treated wells, A0 is the average absorbance of the blank wells with DMSO, and AC is the average absorbance of the control untreated wells. The IC50 values for each treatment was then determined through fitting of the Hill equation for dose-response in GraphPad™. The Hill equation is given as follows: […]
with X as the drug concentration and Y as the fractional inhibition, and m is known as the Hill coefficient and is determined according to the fit.
To evaluate drug efficacy against 4T1, drugs were evaluated as single drugs and as combination treatments with DOX. Synergy was quantified using the combination index (CI)^10. The formula for CI is as follows:
Where [AC]50 and [BC]50 represent the IC50 of drugs A and B when given in combination, and the denominator represents the IC50 of single drugs A and B. CI<1 indicates synergy, while a CI=1 indicates additive effects, and a CI>1 indicates antagonism.

[2] = Drug release from liposomes into PBS at 37° C. over 24 hours, Example 1; format: physicochemical; details: release from liposomal formulation
Method: The release profile of drug from liposomes was studied using Amicon Ultra mini dialysis filters supplied by Millipore Sigma (Burlington, Mass.) at sink conditions^59. A tenfold dilution of each liposomal formulation in PBS was kept in the mini dialysis filter at 37° C. above a 1.1 ml PBS reservoir. Samples were placed on a plate shaker for constant agitation. […] All PBS reservoirs were analyzed for released drug content using HPLC.

[3] = free drugs and free drug combinations
[4] = free drugs and free drug combinations, 72 hours, 500 cells/well
[5] = Mus musculus, 72 h, free drugs and free drug combinations, 500 cells/well

COc1cccc2c1C(=O)c1c(O)c3c(c(O)c1C2=O)C[C@@](O)(C(=O)CO)C[C@@H]3O[C@H]1C[C@H](N)[C@H](O)[C@H](C)O1 [DOX, Doxorubicin]
fold increase in calreticulin exposure on 4T1 cells (4T1 cells): 1.8 fold | Hill coefficient, HC [1, 3]: 0.75 ± 0.04 | IC50 [1, 4]: 36 nM

Nc1ccn([C@@H]2O[C@H](CO)[C@@H](O)C2(F)F)c(=O)n1 [GEM, gemcitabine]
IC50 [1, 5]: 12 ± 0.3 nM | IC50 ([1]; Mus musculus, free drug): 12 ± 0.3 nM | Hill coefficient, HC [1, 3]: 1.8±0.09 and 1.83 ± 0.09

CCc1c2c(nc3ccc(OC(=O)N4CCC(N5CCCCC5)CC4)cc13)-c1cc3c(c(=O)n1C2)COC(=O)[C@]3(O)CC [IRIN, irinotecan]
IRIN released within 24 hours [2]: less than 40% | IC50 [1, 5]: 14000 nM | IC50 [1, 4]: 14000 ± 700 nM
